Laboratory results taken from EPA's CvTdb concentration-time database (doi:10.1093/toxsci/kfy020).

Legend:
Assay in all cases: concentration in plasma after dosing
rat [1] = conditions: male, Sprague-Dawley
rat [2] = conditions: dosed: Pentadecafluorooctanoic acid, 0.2000000000 mg/kg, iv, male, Sprague-Dawley
rat [3] = conditions: dosed: Pentadecafluorooctanoic acid, 0.2000000000 mg/kg, iv, male, Sprague-Dawley; remark: listed apart in the source
rat [4] = conditions: dosed: Pentadecafluorooctanoic acid, 1.0000000000 mg/kg, oral, male, Sprague-Dawley
rat [5] = conditions: dosed: Pentadecafluorooctanoic acid, 1.0000000000 mg/kg, oral, male, Sprague-Dawley; remark: listed apart in the source
rat [6] = conditions: dosed: Pentadecafluorooctanoic acid, 1.0000000000 mg/kg, oral, male, Sprague-Dawley; remark: listed apart in the source
rat [7] = conditions: dosed: Pentadecafluorooctanoic acid, 0.2000000000 mg/kg, iv, male, Sprague-Dawley; remark: listed apart in the source

Cc1ncc2n1-c1ccc(Cl)cc1C(c1ccccc1F)=NC2 [Midazolam]
concentration in plasma [µg/mL], rat [1], dosed: Midazolam
Conditions | 0.25 h | 0.5 h | 1 h | 1.5 h | 2 h | 3 h | 4 h | 5 min | 10 min
5.0000000000 mg/kg, iv | 0.964 | 0.57 | 0.255 | 0.125 | 0.0625 | 0.0161 | 0.001 | 2.21 | 1.08
15.0000000000 mg/kg, oral | 0.134 | 0.163 | 0.123 | 0.113 | 0.0885 | 0.0377 | 0.0198 | 0.0129 | 0.0711

O=C(O)C(F)(F)C(F)(F)C(F)(F)C(F)(F)C(F)(F)C(F)(F)C(F)(F)F [Pentadecafluorooctanoic acid]
concentration in plasma [µg/mL]
Conditions | rat [2] | rat [3] | rat [4] | rat [5] | rat [6] | rat [7]
0.25 h | – | – | 0.762 | 0.363 | 0.248 | –
0.5 h | 0.15 | 0.245 | 0.608 | 0.54 | 0.379 | 0.188
1 h | 0.144 | 0.226 | 0.897 | 0.669 | 0.665 | 0.189
2 h | 0.138 | 0.236 | 0.95 | 0.957 | 0.764 | 0.196
4 h | 0.168 | 0.196 | 0.924 | 1.04 | 0.765 | 0.189
5 min | 0.208 | 0.31 | – | – | – | 0.257
8 h | 0.148 | 0.207 | 1.21 | 1.1 | 0.955 | 0.171
10 min | 0.176 | 0.28 | – | – | – | 0.207
12 h | 0.147 | 0.194 | 1.18 | 1.1 | 1.03 | 0.135
24 h | 0.141 | 0.195 | 1.13 | 1.04 | 1.01 | 0.168
48 h | 0.115 | 0.161 | 0.916 | 1.51 | 0.857 | 0.148
72 h | 0.098 | 0.153 | 0.855 | 0.663 | 0.563 | 0.122

rat [1], dosed: Pentadecafluorooctanoic acid
Conditions | concentration in plasma [µg/mL]
0.25 h, 1.0000000000 mg/kg, oral | 0.42
0.5 h, 0.2000000000 mg/kg, iv | 0.156
0.5 h, 1.0000000000 mg/kg, oral | 0.584
1 h, 0.2000000000 mg/kg, iv | 0.145
1 h, 1.0000000000 mg/kg, oral | 0.885
2 h, 0.2000000000 mg/kg, iv | 0.15
2 h, 1.0000000000 mg/kg, oral | 1.17
4 h, 0.2000000000 mg/kg, iv | 0.141
4 h, 1.0000000000 mg/kg, oral | 1.19
5 min, 0.2000000000 mg/kg, iv | 0.221
8 h, 0.2000000000 mg/kg, iv | 0.123
8 h, 1.0000000000 mg/kg, oral | 1.14
10 min, 0.2000000000 mg/kg, iv | 0.188
12 h, 0.2000000000 mg/kg, iv | 0.142
12 h, 1.0000000000 mg/kg, oral | 1.12
24 h, 0.2000000000 mg/kg, iv | 0.139
24 h, 1.0000000000 mg/kg, oral | 1.27
48 h, 0.2000000000 mg/kg, iv | 0.059
48 h, 1.0000000000 mg/kg, oral | 0.911
72 h, 0.2000000000 mg/kg, iv | 0.1
72 h, 1.0000000000 mg/kg, oral | 0.655

CCOc1ccc(NC(C)=O)cc1 [Phenacetin]
rat [1], dosed: Phenacetin, 23.0000000000 mg/kg, iv
Conditions | concentration in plasma [µg/mL]
0.25 h | 18.9
0.5 h | 16.1
0.75 h | 12.2
1 h | 9.02
1.5 h | 6.63
2 h | 4.32
2.5 min | 26.3
5 min | 24.3
10 min | 21.8
